Data reported in patent US20240409585A1, “MACROCYCLIC IMMUNOMODULATORS” (priority 2021, published 2024).
Numbered stars: 1 amine (or outer) side, 2 acyl side, 3 side chain; on linkers, the order of the positions; unused ones are H or OH. Bridge positions count the residues as written; N and C are the ends. Square brackets hold non-standard residues; d marks the D form. Peptide text beside a SMILES is read from it. * marks the point of attachment. ξ: configuration not given here. X22 = NC(=O)c1cccc(-c2ccc(C[C@H](N[*:1])C(=O)[*:2])cc2)c1; Phe(4-CONH2) = NC(=O)c1ccc(C[C@H](N)C(=O)O)cc1; Phe(4-COOH) = N[C@@H](Cc1ccc(C(=O)O)cc1)C(=O)O; Bip = N[C@@H](Cc1ccc(-c2ccccc2)cc1)C(=O)O; Phe(3-Me) = Cc1cccc(C[C@H](N)C(=O)O)c1; d1Nal = N[C@H](Cc1cccc2ccccc12)C(=O)O; Bta = N[C@@H](Cc1csc2ccccc12)C(=O)O; Val(3-OH) = CC(C)(O)[C@H](N)C(=O)O; 4Pal = N[C@@H](Cc1ccncc1)C(=O)O; Cha = N[C@@H](CC1CCCCC1)C(=O)O; Cit = NC(=O)NCCC[C@H](N)C(=O)O; Ile(3ξ) = CCC(C)[C@H](N)C(=O)O; Thr(3ξ) = CC(O)[C@H](N)C(=O)O; Dap(Me) = CNC[C@H](N)C(=O)O; Carboxymethyl = O=C(O)C*; NMeA = CN[C@@H](C)C(=O)O; Orn = NCCC[C@H](N)C(=O)O; Dab = NCC[C@H](N)C(=O)O

Molecular target: T1, PE-labeled human PD-L1-Ig binding to Jurkat cell line over-expressing human PD-1 (Jurkat-PD-1) (Homo sapiens, UniProt Q15116)
T1 construct: expressed in transfected cells; host or cells: Jurkat
Test: Jurkat-PD-1 Cell Binding High-Content Screening Assay (CBA): Method 1
Conditions: Jurkat-hPD-1 cells, PE-labeled PD-L1-Ig 20 nM final; read-out: Jurkat HPDL1 PD1 IC50 (uM) (Method 1)

T1 sequence (Q15116 25-288): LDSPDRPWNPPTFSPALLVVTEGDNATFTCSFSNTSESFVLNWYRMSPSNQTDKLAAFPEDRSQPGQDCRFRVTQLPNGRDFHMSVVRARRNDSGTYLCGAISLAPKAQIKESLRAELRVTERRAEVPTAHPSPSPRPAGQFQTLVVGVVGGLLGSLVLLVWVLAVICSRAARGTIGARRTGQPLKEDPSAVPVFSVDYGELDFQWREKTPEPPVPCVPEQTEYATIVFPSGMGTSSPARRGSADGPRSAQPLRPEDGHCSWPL

`Cc1cccc(C[C@@H]2NC(=O)[C@H](CC(=O)O)NC(=O)[C@H](Cc3ccc(C(N)=O)cc3)NC(=O)[C@H](Cc3ccncc3)NC(=O)CSC[C@@H](C(=O)N[C@@H](CCN)C(N)=O)NC(=O)[C@H](CO)NC(=O)[C@H](C(C)(C)O)NC(=O)[C@H](CC3CCCCC3)NC(=O)[C@H](CCN)NC(=O)[C@@H](CC(C)C)NC(=O)[C@H](C)N(C)C(=O)[C@H](Cc3ccc(OCC(=O)O)cc3)NC(=O)[C@H](Cc3ccc(-c4ccccc4)cc3)NC(=O)[C@H](Cc3ccc(OCC(=O)O)cc3)NC2=O)c1` [Compound 2138] ({CH2CO}-[4Pal][Phe(4-CONH2)]D[Phe(3-Me)]Y(Carboxymethyl)[Bip]Y(Carboxymethyl)[NMeA][dL][Dab][Cha][Val(3-OH)]SC[Dab]-NH2; thioether N-14) was tested, and the IC50 was 0.03 µM.

`CCC(C)[C@@H]1NC(=O)[C@H](Cc2ccc(-c3ccccc3)cc2)NC(=O)[C@H](C(C)C)NC(=O)[C@H](Cc2c[nH]c3ccccc23)NC(=O)[C@H](CC(=O)O)NC(=O)[C@H](Cc2ccc(O)cc2)NC(=O)[C@H](CNC)NC(=O)CSC[C@@H](C(=O)N[C@@H](C)C(N)=O)NC(=O)[C@H](C(C)O)NC(=O)[C@H](C(C)C)NC(=O)[C@H](CC2CCCCC2)NC(=O)[C@H](CCN)NC(=O)[C@@H](CC(C)C)NC(=O)[C@H](C)N(C)C1=O` (stereo partly drawn) [Compound 2050] ({CH2CO}-[Dap(Me)]YDWV[Bip][Ile(3ξ)][NMeA][dL][Dab][Cha]V[Thr(3ξ)]CA-NH2; thioether N-14) gave an IC50 of 0.01 µM.

Work on `CCC(C)[C@@H]1NC(=O)[C@H](Cc2ccc(-c3ccccc3)cc2)NC(=O)[C@H](CC(C)C)NC(=O)[C@H](Cc2c[nH]c3ccccc23)NC(=O)[C@H](CC(=O)O)NC(=O)[C@H](Cc2ccc(C(=O)O)cc2)NC(=O)[C@H](Cc2ccc(OCC(=O)O)cc2)NC(=O)CSC[C@@H](C(=O)N[C@@H](CC(N)=O)C(N)=O)NC(=O)[C@H](CO)NC(=O)[C@H](C(C)C)NC(=O)[C@H](CC2CCCCC2)NC(=O)[C@H](CCN)NC(=O)[C@@H](CC(C)C)NC(=O)[C@H](C)N(C)C1=O` (stereo partly drawn) [Compound 1923] ({CH2CO}-Y(Carboxymethyl)[Phe(4-COOH)]DWL[Bip][Ile(3ξ)][NMeA][dL][Dab][Cha]VSCN-NH2; thioether N-14) yielded an IC50 of 0.02 µM.

In the case of `CC(C)C[C@@H]1NC(=O)[C@H](Cc2c[nH]c3ccccc23)NC(=O)[C@H](CC(=O)O)NC(=O)[C@H](Cc2ccc(O)cc2)NC(=O)[C@H](Cc2ccccc2)NC(=O)CSC[C@@H](C(=O)NCC(N)=O)NC(=O)[C@H](CO)NC(=O)[C@H](C(C)C)NC(=O)[C@H](CC(C)C)NC(=O)[C@H](CC(N)=O)NC(=O)[C@@H](C)NC(=O)[C@H](C)N(C)C(=O)[C@H](C(C)C)NC(=O)[C@H](Cc2ccc(-c3ccccc3)cc2)NC1=O` [Compound 1729] ({CH2CO}-FYDWL[Bip]V[NMeA][dA]NLVSCG-NH2; thioether N-14), the IC50 is reported as 0.01 µM.

Work on `CC(C)C[C@@H]1NC(=O)[C@H](CCCN)NC(=O)[C@@H](Cc2cccc3ccccc23)NC(=O)[C@H](C)N(C)C(=O)[C@H](CCCNC(=N)N)NC(=O)[C@H](Cc2ccc(-c3ccccc3)cc2)NC(=O)[C@H](C(C)C)NC(=O)[C@H](Cc2c[nH]c3ccccc23)NC(=O)[C@H](CC(=O)O)NC(=O)[C@H](Cc2ccc(O)cc2)NC(=O)[C@H](CC(N)=O)NC(=O)CSC[C@@H](C(=O)N[C@@H](C)C(N)=O)NC(=O)[C@H]([C@@H](C)O)NC(=O)[C@H](C(C)C)NC1=O` [Compound 1182] ({CH2CO}-NYDWV[Bip]R[NMeA][d1Nal][Orn]LVTCA-NH2; thioether N-14) yielded an IC50 of 0.3 µM.

`Cc1cccc(C[C@@H]2NC(=O)[C@H](CC(=O)O)NC(=O)[C@H](Cc3ccc(OCC(=O)O)cc3)NC(=O)[C@H]([C@@H](C)O)NC(=O)CSC[C@@H](C(N)=O)NC(=O)[C@H](CC(=O)O)NC(=O)[C@H](C(C)C)NC(=O)[C@H](CC3CCCCC3)NC(=O)[C@H](CC(N)=O)NC(=O)[C@@H](CC(C)C)NC(=O)[C@H](C)N(C)C(=O)[C@H](Cc3ccc(OCC(=O)O)cc3)NC(=O)[C@H](Cc3ccc(-c4ccccc4)cc3)NC(=O)[C@H](Cc3ccc(OCC(=O)O)cc3)NC2=O)c1` [Compound 1676] ({CH2CO}-TY(Carboxymethyl)D[Phe(3-Me)]Y(Carboxymethyl)[Bip]Y(Carboxymethyl)[NMeA][dL]N[Cha]VDC-NH2; thioether N-14) gave an IC50 of 0.24 µM.

`CC(C)C[C@@H]1NC(=O)[C@H](Cc2c[nH]c3ccccc23)NC(=O)[C@H](CC(=O)O)NC(=O)[C@H](Cc2ccc(C(=O)O)cc2)NC(=O)[C@H](Cc2ccc(OCC(=O)O)cc2)NC(=O)CSC[C@@H](C(=O)NCC(N)=O)NC[C@H](CO)NC(=O)[C@H](C(C)C)NC(=O)[C@H](CC2CCCCC2)NC(=O)[C@H](CC(N)=O)NC(=O)[C@@H](CC(C)C)NC(=O)[C@H](C)N(C)C(=O)[C@H](C(C)C)NC(=O)[C@H](Cc2ccc(-c3ccccc3)cc2)NC1=O` [Compound 1623] showed an IC50 of 0.19 µM.

Molecule `CC(C)C[C@@H]1NC(=O)[C@H](Cc2c[nH]c3ccccc23)NC(=O)[C@H](CC(=O)O)NC(=O)[C@H](Cc2ccc(O)cc2)NC(=O)[C@H](Cc2ccccc2)NC(=O)CSC[C@@H](C(=O)N[C@@H](C)C(N)=O)NC(=O)[C@H](CO)NC(=O)[C@H](C(C)C)NC(=O)[C@H](CC(C)C)NC(=O)[C@H](CC(=O)O)NC(=O)[C@@H](C)NC(=O)[C@H](C)N(C)C(=O)[C@H](C(C)C)NC(=O)[C@H](Cc2ccc(-c3cccc(C(N)=O)c3)cc2)NC1=O` [Compound 1830] ({CH2CO}-FYDWL[X22]V[NMeA][dA]DLVSCA-NH2; thioether N-14) has an IC50 of 0.9 µM.

With `CC(C)C[C@@H]1NC(=O)[C@H](Cc2c[nH]c3ccccc23)NC(=O)[C@H](CC(=O)O)NC(=O)[C@H](Cc2ccc(C(=O)O)cc2)NC(=O)[C@H](Cc2ccc(OCC(=O)O)cc2)NC(=O)CSC[C@@H](C(N)=O)NC(=O)[C@H](CO)NC(=O)[C@H](C(C)C)NC(=O)[C@H](CC2CCCCC2)NC(=O)[C@H](CCN)NC(=O)[C@@H](CC(C)C)NC(=O)[C@H](C)N(C)C(=O)[C@H](CCCNC(N)=O)NC(=O)[C@H](Cc2ccc(-c3ccccc3)cc2)NC1=O` [Compound 1636] ({CH2CO}-Y(Carboxymethyl)[Phe(4-COOH)]DWL[Bip][Cit][NMeA][dL][Dab][Cha]VSC-NH2; thioether N-14) the IC50 was 0.01 µM.

In the case of `CC(C)C[C@H]1NC(=O)[C@H](C)N(C)C(=O)[C@H](C(C)C)NC(=O)[C@H](Cc2ccc(-c3ccccc3)cc2)NC(=O)[C@H](C(C)C)NC(=O)[C@H](Cc2c[nH]c3ccccc23)NC(=O)[C@H](CC(=O)O)NC(=O)[C@H](Cc2ccncc2)NC(=O)[C@H](Cc2ccc(OCC(=O)O)cc2)NC(=O)CSC[C@@H](C(N)=O)NC(=O)[C@H](CCCCN)NC(=O)[C@H](C(C)C)NC(=O)[C@H](CC2CCCCC2)NC(=O)[C@H](CC(N)=O)NC1=O` [Compound 2246] ({CH2CO}-Y(Carboxymethyl)[4Pal]DWV[Bip]V[NMeA][dL]N[Cha]VKC-NH2; thioether N-14), the IC50 is reported as 0.03 µM.

With `CC(C)C[C@@H]1NC(=O)[C@H](CCN)NC(=O)[C@H](Cc2csc3ccccc23)NC(=O)[C@H](C)N(C)C(=O)[C@H](CCCN)NC(=O)[C@H](Cc2ccc(-c3ccccc3)cc2)NC(=O)[C@H](C(C)C)NC(=O)[C@H](Cc2c[nH]c3ccccc23)NC(=O)[C@H](CC(=O)O)NC(=O)[C@H](Cc2ccc(O)cc2)NC(=O)[C@H](Cc2ccccc2)NC(=O)CSC[C@@H](C(=O)N[C@@H](C)C(N)=O)NC(=O)[C@H]([C@@H](C)O)NC(=O)[C@H](C(C)C)NC1=O` [Compound 1122] ({CH2CO}-FYDWV[Bip][Orn][NMeA][Bta][Dab]LVTCA-NH2; thioether N-14) the IC50 was 0.24 µM.
